Reference: patent publication US11279735B2, “Cyclic peptide antibiotics” (priority 2017, dated 2022)
In brackets after ≈: the same amount, converted by molar mass. *1 amine or outer side, *2 acyl side, *3 side chain or, on linkers, in order; H or OH if unused. Where a SMILES comes first, the peptide text is derived from it. [ ]: non-standard residue; d: D form. The star is where a group is joined. X13 = C[C@H](CO[C@H](CC1CC2(CCC2)C1)[C@@H](C)C(=O)[*:2])N[*:1]; X5 = CCCC[C@@H](OC[C@@H](C)N[*:1])[C@@H](CCCC)C(=O)[*:2]; X2 = CCCCCC[C@@H](OC[C@@H](C)N[*:1])[C@@H](C)C(=O)[*:2]; X23 = CCCCCCCCCC[C@@H](OCCN[*:1])[C@@H](C)C(=O)[*:2]; Gly(cHept) = N[C@H](C(=O)O)C1CCCCCC1; aIle = CC[C@@H](C)[C@H](N)C(=O)O; aThr = C[C@H](O)[C@H](N)C(=O)O; NMeL = CN[C@@H](CC(C)C)C(=O)O; Chg = N[C@H](C(=O)O)C1CCCCC1; NMeNva = CCC[C@H](NC)C(=O)O; Dap = NC[C@H](N)C(=O)O; Propyl(3-NH2) = NCCC*; X7 = NCC(O)C*

tested on: Escherichia coli (E. coli) strain CFT073 ATCC 700928; type: cell-based; details: ATCC 700928, 22 h
Outline: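 Broth microdilution MIC per CLSI M07-A8 in cation-adjusted Mueller Hinton II broth with 0.002% Tween-80. Ten-point 2-fold series topped at 64, 4, 0.5 or 0.13 μg/mL depending on protocol. Final inoculum OD600 0.0005, incubated 22 h at 35 °C.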

MIC	SMILES
3.1 µM (≈ 2.14 µg/mL)	CCCCCC[C@H]1OC(=O)CNC(=O)[C@H](C2CCC2)NC(=O)[C@H](CN)NC(=O)[C@H](C2CCCCC2)NC(=O)[C@H](CC(C)C)N(C)C(=O)[C@@H]1C [Example 162, (6S,9S,12S,15S,18R,19R)-9-(Aminomethyl)-6-cyclobutyl-12-cyclohexyl-19-hexyl-15-isobutyl-16,18-dimethyl-1-oxa-4,7,10,13,16-pentaazacyclononadecane-2,5,8,11,14,17-hexaone]
1.3 µM (≈ 0.903 µg/mL)	CCCC[C@H]1OC(=O)CNC(=O)[C@H]([C@H](C)O)NC(=O)[C@H](CN)NC(=O)[C@H](C2CCCCC2)NC(=O)[C@H](CC(C)C)N(C)C(=O)[C@@H]1CCCC [Example 66, (6S,9S,12S,15S,18R,19R)-9-(Aminomethyl)-18,19-dibutyl-12-cyclohexyl-6-((S)-1-hydroxyethyl)-15-isobutyl-16-methyl-1-oxa-4,7,10,13,16-pentaazacyclononadecane-2,5,8,11,14,17-hexaone]
4.4 µM (≈ 3 µg/mL)	CCCC[C@H]1OC[C@@H](C)NC(=O)[C@H]([C@H](C)O)NC(=O)[C@H](CN)NC(=O)[C@H](C2CCCCC2)NC(=O)[C@H](CCC)N(C)C(=O)[C@@H]1CCCC [Example 77, (3R,6S,9S,12S,15S,18R,19R)-9-(Aminomethyl)-18,19-dibutyl-12-cyclohexyl-6-((S)-1-hydroxyethyl)-3,16-dimethyl-15-propyl-1-oxa-4,7,10,13,16-pentaazacyclononadecane-5,8,11,14,17-pentaone] (cyclo([Chg][Dap][aThr][X5][NMeNva]))
17 µM (≈ 11.6 µg/mL)	CCCCCCCCCC[C@H]1OCCNC(=O)[C@H](CO)NC(=O)[C@H](CN)NC(=O)[C@H]([C@H](C)CC)NC(=O)[C@H](CC(C)C)N(C)C(=O)[C@@H]1C [Example 99, (6S,9S,12S,15S,18R,19R)-9-(aminomethyl)-19-decyl-6-(hydroxymethyl)-15-isobutyl-16,18-dimethyl-12-[(1R)-1-methylpropyl]-1-oxa-4,7,10,13,16-pentazacyclononadecane-5,8,11,14,17-pentone] (cyclo([Dap]S[X23][NMeL][aIle]))
3.1 µM (≈ 2.33 µg/mL)	CC(C)C[C@H]1C(=O)N[C@@H](C2CCCCC2)C(=O)N[C@@H](CN)C(=O)N[C@@H](COCCCN)C(=O)NCC(=O)O[C@H](CCCCC(C)(C)C)[C@@H](C)C(=O)N1C [Example 75, (6S,9S,12S,15S,18R,19R)-9-(Aminomethyl)-6-((3-aminopropoxy)methyl)-12-cyclohexyl-19-(5,5-dimethylhexyl)-15-isobutyl-16,18-dimethyl-1-oxa-4,7,10,13,16-pentaazacyclononadecane-2,5,8,11,14,17-hexaone]
19 µM (≈ 14.9 µg/mL)	CCCCCCCCCC[C@H]1OC(=O)CNC(=O)[C@H](COCCOCCN)NC(=O)[C@H](CO)NC(=O)[C@H]([C@@H](C)CC)NC(=O)[C@H](CC(C)C)N(C)C(=O)[C@@H]1C [Example 92, (6S,9S,12S,15S,18R,19R)-6-[2-(2-aminoethoxy)ethoxymethyl]-19-decyl-9-(hydroxymethyl)-15-isobutyl-16,18-dimethyl-12-[(1S)-1-methylpropyl]-1-oxa-4,7,10,13,16-pentazacyclononadecane-2,5,8,11,14,17-hexone]
3.1 µM (≈ 2.15 µg/mL)	CCCCCC(C)[C@H]1OC(=O)CNC(=O)[C@H]([C@H](C)O)NC(=O)[C@H](CN)NC(=O)[C@H](C2CCCCC2)NC(=O)[C@H](CC(C)C)N(C)C(=O)[C@@H]1C (stereo partly drawn) [Example 126, (6S,9S,12S,15S,18R,19R)-9-(aminomethyl)-12-cyclohexyl-15-isobutyl-16,18-dimethyl-19-(1-methylhexyl)-6-[(1S)-1-hydroxyethyl]-1-oxa-4,7,10,13,16-pentazacyclononadecane-2,5,8,11,14,17-hexone]
25 µM (≈ 17.7 µg/mL)	CCCCCCCCCC[C@H]1OC(=O)CNC(=O)[C@H](CO)NC(=O)[C@H](CO)NC(=O)[C@H](CC2CCC2)NC(=O)[C@H](CC(C)C)N(C)C(=O)[C@@H]1C [Example 41, (6S,9S,12S,15S,18R,19R)-12-(cyclobutylmethyl)-19-decyl-6,9-bis(hydroxymethyl)-15-isobutyl-16,18-dimethyl-1-oxa-4,7,10,13,16-pentazacyclononadecane-2,5,8,11,14,17-hexone]
8.7 µM (≈ 7.25 µg/mL)	CCCCCC[C@H]1OC(=O)CNC(=O)[C@H]([C@H](C)O)NC(=O)[C@H](CN)NC(=O)[C@H](C2CCCCC2)NC(=O)[C@H](CC(C)C)N(C)C(=O)[C@@H]1Cc1ccc(-c2ccccc2)cc1 [Example 54, (6S,9S,12S,15S,18R,19R)-18-([1,1′-Biphenyl]-4-ylmethyl)-9-(aminomethyl)-12-cyclohexyl-19-hexyl-6-((S)-1-hydroxyethyl)-15-isobutyl-16-methyl-1-oxa-4,7,10,13,16-pentaazacyclononadecane-2,5,8,11,14,17-hexaone]
3.1 µM (≈ 2.25 µg/mL)	CCCCCCCCCC[C@H]1OC(=O)[C@H](C)NC(=O)[C@H]([C@H](C)O)NC(=O)[C@H](CN)NC(=O)[C@H]([C@H](C)CC)NC(=O)[C@H](CC(C)C)N(C)C(=O)[C@@H]1C [Example 3, (3S,6S,9S,12S,15S,18R,19R)-9-(aminomethyl)-12-((R)-sec-butyl)-19-decyl-6-((S)-1-hydroxyethyl)-15-isobutyl-3,16,18-trimethyl-1-oxa-4,7,10,13,16-pentaazacyclononadecane-2,5,8,11,14,17-hexaone]
44 µM (≈ 31.3 µg/mL)	CCCCCC[C@H]1OC[C@@H](C)NC(=O)[C@H](COCCCN)NC(=O)[C@H](CO)NC(=O)[C@H](C2CCCCC2)NC(=O)[C@H](CCC)N(C)C(=O)[C@@H]1C [Example 130, (3R,6S,9S,12S,15S,18R,19R)-6-(3-aminopropoxymethyl)-12-cyclohexyl-19-hexyl-9-(hydroxymethyl)-3,16,18-trimethyl-15-propyl-1-oxa-4,7,10,13,16-pentazacyclononadecane-5,8,11,14,17-pentone] (cyclo([Chg]SS(Propyl(3-NH2))[X2][NMeNva]))
12 µM (≈ 8.88 µg/mL)	CCCCCC[C@H]1OC[C@@H](C)NC(=O)[C@H](COCC(O)CN)NC(=O)[C@H](CN)NC(=O)[C@H](C2CCCCC2)NC(=O)[C@H](CC(C)C)N(C)C(=O)[C@@H]1C (stereo partly drawn) [Example 173, (3R,6S,9S,12S,15S,18R,19R)-6-((3-Amino-2-hydroxypropoxy)methyl)-9-(aminomethyl)-12-cyclohexyl-19-hexyl-15-isobutyl-3,16,18-trimethyl-1-oxa-4,7,10,13,16-pentaazacyclononadecane-5,8,11,14,17-pentaone] (cyclo([Chg][Dap]S(X7)[X2][NMeL]))
13 µM (≈ 9.44 µg/mL)	CCCCCCCCCC[C@H]1OC(=O)[C@H](C)NC(=O)[C@H]([C@H](C)O)NC(=O)[C@H](CO)NC(=O)[C@H]([C@@H](C)CC)NC(=O)[C@H](CC(C)C)N(C)C(=O)[C@@H]1C [Example 33, (3S,6S,9S,12S,15S,18R,19R)-19-decyl-6-[(1S)-1-hydroxyethyl]-9-(hydroxymethyl)-15-isobutyl-3,16,18-trimethyl-12-[(1S)-1-methylpropyl]-1-oxa-4,7,10,13,16-pentazacyclononadecane-2,5,8,11,14,17-hexone]
3.1 µM (≈ 2.32 µg/mL)	CCCCCC[C@H]1OC(=O)CNC(=O)[C@H]([C@H](C)O)NC(=O)[C@H](CN)NC(=O)[C@H](C2CCCCC2)NC(=O)[C@H](CC(C)C)N(C)C(=O)[C@@H]1CC(F)(F)F [Example 68, (6S,9S,12S,15S,18R,19R)-9-(Aminomethyl)-12-cyclohexyl-19-hexyl-6-((S)-1-hydroxyethyl)-15-isobutyl-16-methyl-18-(2,2,2-trifluoroethyl)-1-oxa-4,7,10,13,16-pentaazacyclononadecane-2,5,8,11,14,17-hexaone]
3.1 µM (≈ 2.32 µg/mL)	CCC[C@H]1C(=O)N[C@@H](C2CCCCCC2)C(=O)N[C@@H](CN)C(=O)N[C@@H](COCCCN)C(=O)N[C@H](C)CO[C@H](CC2CC3(CCC3)C2)[C@@H](C)C(=O)N1C [Example 159, (3R,6S,9S,12S,15S,18R,19R)-9-(Aminomethyl)-6-((3-aminopropoxy)methyl)-12-cycloheptyl-3,16,18-trimethyl-15-propyl-19-(spiro[3.3]heptan-2-ylmethyl)-1-oxa-4,7,10,13,16-pentaazacyclononadecane-5,8,11,14,17-pentaone] (cyclo([Dap]S(Propyl(3-NH2))[X13][NMeNva][Gly(cHept)]))
50 µM (≈ 38 µg/mL)	CCCCCCCCCC[C@H]1OC(=O)CNC(=O)[C@H]([C@H](C)O)NC(=O)[C@H](CN)NC(=O)[C@H]([C@H](C)CC)NC(=O)[C@H](CCc2ccccc2)N(C)C(=O)[C@@H]1C [Example 88, (6S,9S,12S,15S,18R,19R)-9-(aminomethyl)-19-decyl-16,18-dimethyl-15-(2-phenylethyl)-6-[(1S)-1-hydroxyethyl]-12-[(1R)-1-methylpropyl]-1-oxa-4,7,10,13,16-pentazacyclononadecane-2,5,8,11,14,17-hexone]
13 µM (≈ 9.26 µg/mL)	CCCCCCCCCC[C@H]1OC(=O)CNC(=O)[C@H](CCO)NC(=O)[C@H](CO)NC(=O)[C@H]([C@@H](C)CC)NC(=O)[C@H](CC(C)C)N(C)C(=O)[C@@H]1C [Example 27, (6S,9S,12S,15S,18R,19R)-19-decyl-6-(2-hydroxyethyl)-9-(hydroxymethyl)-15-isobutyl-16,18-dimethyl-12-[(1S)-1-methylpropyl]-1-oxa-4,7,10,13,16-pentazacyclononadecane-2,5,8,11,14,17-hexone]
50 µM (≈ 32.7 µg/mL)	CCCCCC[C@H]1OC(=O)CNC(=O)[C@H](CCO)NC(=O)[C@H](CN)NC(=O)[C@H]([C@H](C)CC)NC(=O)[C@H](CC(C)C)N(C)C(=O)[C@@H]1C [Example 13, (6S,9S,12S,15S,18R,19R)-9-(aminomethyl)-19-hexyl-6-(2-hydroxyethyl)-15-isobutyl-16,18-dimethyl-12-[(1R)-1-methylpropyl]-1-oxa-4,7,10,13,16-pentazacyclononadecane-2,5,8,11,14,17-hexone]
50 µM (≈ 37.6 µg/mL)	CCCCCCCCCC[C@H]1OC(=O)CNC(=O)[C@H](C2CCNCC2)NC(=O)[C@H](CO)NC(=O)[C@H]([C@@H](C)CC)NC(=O)[C@H](CC(C)C)N(C)C(=O)[C@@H]1C [Example 38, (6S,9S,12S,15S,18R,19R)-19-decyl-9-(hydroxymethyl)-15-isobutyl-16,18-dimethyl-12-[(1S)-1-methylpropyl]-6-(4-piperidyl)-1-oxa-4,7,10,13,16-pentazacyclononadecane-2,5,8,11,14,17-hexone]
